For orientation: IC50 means the point on the concentration scale where inhibition reaches its midpoint. Read a high IC50 as lower potency.

Assay in all cases: Kinase Assay
For assay [1], the target named is cAMP-dependent protein kinase catalytic subunit alpha (Homo sapiens, UniProt P17612).
Assay [2] has as its target Protein kinase C alpha type (Homo sapiens, UniProt P17252).
The target in assay [3] is Tyrosine-protein kinase ABL1 (Homo sapiens, UniProt P00519).
Assay [4] deals with Tyrosine-protein kinase CSK (Homo sapiens, UniProt P41240).
The target of assay [5] is Epidermal growth factor receptor (Homo sapiens, UniProt P00533). The procedure:
Determination of EGF receptor kinase activity was performed as described using A431 membranes as the enzyme source and agiotensin II as substrate.

SMILES strings stand for the structures.

Tyrosine-protein kinase CSK, sequence (P41240 whole entry): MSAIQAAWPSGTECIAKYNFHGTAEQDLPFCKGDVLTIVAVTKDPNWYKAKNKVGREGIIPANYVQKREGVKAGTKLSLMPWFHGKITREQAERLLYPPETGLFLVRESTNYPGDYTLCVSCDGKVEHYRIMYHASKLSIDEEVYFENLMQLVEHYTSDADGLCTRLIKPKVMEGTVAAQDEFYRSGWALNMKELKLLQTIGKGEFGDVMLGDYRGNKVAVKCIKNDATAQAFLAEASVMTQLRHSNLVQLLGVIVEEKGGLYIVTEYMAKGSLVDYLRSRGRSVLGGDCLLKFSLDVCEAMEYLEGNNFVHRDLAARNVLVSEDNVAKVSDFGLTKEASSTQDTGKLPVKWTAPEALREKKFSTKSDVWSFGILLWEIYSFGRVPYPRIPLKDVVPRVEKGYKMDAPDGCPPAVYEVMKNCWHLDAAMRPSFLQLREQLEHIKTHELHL
Epidermal growth factor receptor, sequence (P00533 whole entry): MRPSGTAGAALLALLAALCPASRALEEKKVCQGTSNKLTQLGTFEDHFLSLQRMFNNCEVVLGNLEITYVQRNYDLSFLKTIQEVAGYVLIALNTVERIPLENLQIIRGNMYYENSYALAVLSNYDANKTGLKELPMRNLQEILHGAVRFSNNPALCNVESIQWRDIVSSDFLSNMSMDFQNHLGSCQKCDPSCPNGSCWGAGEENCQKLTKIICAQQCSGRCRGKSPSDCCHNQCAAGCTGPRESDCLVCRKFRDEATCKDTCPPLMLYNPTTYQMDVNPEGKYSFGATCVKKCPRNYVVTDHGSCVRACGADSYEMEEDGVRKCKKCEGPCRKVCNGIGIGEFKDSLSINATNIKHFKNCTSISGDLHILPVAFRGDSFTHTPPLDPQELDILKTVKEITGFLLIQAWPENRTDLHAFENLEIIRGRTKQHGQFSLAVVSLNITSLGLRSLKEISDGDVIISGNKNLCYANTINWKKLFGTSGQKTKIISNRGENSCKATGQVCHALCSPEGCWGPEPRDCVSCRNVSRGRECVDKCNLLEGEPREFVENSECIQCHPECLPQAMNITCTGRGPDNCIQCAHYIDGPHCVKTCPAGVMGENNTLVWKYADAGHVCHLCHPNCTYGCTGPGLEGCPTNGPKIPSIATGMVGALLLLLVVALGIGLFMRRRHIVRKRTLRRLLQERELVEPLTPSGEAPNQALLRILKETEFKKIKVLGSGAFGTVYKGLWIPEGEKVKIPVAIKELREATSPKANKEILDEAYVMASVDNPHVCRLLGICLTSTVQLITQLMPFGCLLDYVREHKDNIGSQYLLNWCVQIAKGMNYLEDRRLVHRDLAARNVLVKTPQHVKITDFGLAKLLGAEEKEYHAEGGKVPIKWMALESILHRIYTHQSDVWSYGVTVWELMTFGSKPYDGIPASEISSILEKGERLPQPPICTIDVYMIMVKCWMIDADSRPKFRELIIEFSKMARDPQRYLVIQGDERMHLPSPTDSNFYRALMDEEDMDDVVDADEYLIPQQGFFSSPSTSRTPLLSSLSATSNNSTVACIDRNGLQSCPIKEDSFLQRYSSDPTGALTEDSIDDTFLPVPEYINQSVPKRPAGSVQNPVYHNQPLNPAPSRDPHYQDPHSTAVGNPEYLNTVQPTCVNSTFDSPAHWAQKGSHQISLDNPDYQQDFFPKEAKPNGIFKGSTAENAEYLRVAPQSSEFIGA
Tyrosine-protein kinase ABL1, sequence (P00519 whole entry): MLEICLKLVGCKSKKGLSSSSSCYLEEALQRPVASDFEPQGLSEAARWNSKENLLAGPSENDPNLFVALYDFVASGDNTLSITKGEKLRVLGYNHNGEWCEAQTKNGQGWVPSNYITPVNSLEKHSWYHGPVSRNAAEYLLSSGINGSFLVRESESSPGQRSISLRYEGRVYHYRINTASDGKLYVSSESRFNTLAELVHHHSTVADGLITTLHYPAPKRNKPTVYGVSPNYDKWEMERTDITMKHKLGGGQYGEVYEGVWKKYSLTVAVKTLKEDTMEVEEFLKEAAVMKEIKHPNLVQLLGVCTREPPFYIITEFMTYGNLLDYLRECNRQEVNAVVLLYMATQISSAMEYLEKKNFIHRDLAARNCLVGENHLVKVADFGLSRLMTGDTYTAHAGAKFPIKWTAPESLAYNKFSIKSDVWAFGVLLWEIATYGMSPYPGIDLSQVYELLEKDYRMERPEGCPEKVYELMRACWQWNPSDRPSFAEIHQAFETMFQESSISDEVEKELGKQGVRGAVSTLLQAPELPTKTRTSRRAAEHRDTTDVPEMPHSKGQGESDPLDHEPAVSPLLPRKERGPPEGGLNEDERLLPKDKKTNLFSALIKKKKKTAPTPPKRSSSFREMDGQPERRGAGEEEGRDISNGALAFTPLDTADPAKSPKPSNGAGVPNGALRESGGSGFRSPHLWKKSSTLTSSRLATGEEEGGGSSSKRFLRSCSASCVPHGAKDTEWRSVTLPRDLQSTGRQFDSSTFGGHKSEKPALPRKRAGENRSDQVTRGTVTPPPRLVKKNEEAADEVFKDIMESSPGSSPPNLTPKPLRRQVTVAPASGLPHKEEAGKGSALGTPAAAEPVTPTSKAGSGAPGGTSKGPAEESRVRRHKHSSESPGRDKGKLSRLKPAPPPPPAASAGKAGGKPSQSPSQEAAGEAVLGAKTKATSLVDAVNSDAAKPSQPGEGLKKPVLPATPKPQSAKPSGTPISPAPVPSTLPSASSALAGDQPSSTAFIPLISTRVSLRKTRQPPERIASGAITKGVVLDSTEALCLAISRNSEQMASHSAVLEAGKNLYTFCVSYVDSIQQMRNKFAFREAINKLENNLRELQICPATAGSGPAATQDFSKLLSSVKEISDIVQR

Turning to `O=c1c(-c2ccc(O)cc2)coc2cc(O)cc(O)c12` [Prunetol], the IC50 was more than 100 µM in assay [1], 15 µM in assay [2], 39 µM in assay [3] and more than 50 µM in assay [4].
For the compound `C=CCN1C(=O)C(=C)SC1=NN=c1scc(O)n1C` [Thiazolidine-dione, 1], the IC50 is 6 µM in assay [5]; more than 500 µM in assay [1]; more than 500 µM in assay [2]; more than 100 µM in assay [3]; 4 µM in assay [4].
Take `C=C(C)CN1C(=O)C(=C)SC1=NN=c1scc(O)n1C` [Thiazolidine-dione, 2]: the IC50 was 1 µM in assay [5]; more than 500 µM in assay [1]; more than 100 µM in assay [2]; 100 µM in assay [3]; 3 µM in assay [4].
`C=C(C)Cn1c(O)c(CN(C)C)sc1=NN=c1scc(O)n1C` [Thiazolidine-dione, 3]: the IC50 in assay [5] is 2 µM; in assay [1], more than 500 µM; in assay [2], 350 µM; in assay [3], more than 100 µM; in assay [4], 7 µM.
As for `C=C(C)Cn1c(O)csc1=NN=c1scc(O)n1C` [Thiazolidine-dione, 4], the IC50 in assay [5] was more than 50 µM; in assay [2], more than 100 µM; in assay [3], more than 100 µM; in assay [4], more than 100 µM.
Take `C=CCn1c(O)c(C)sc1=NN=c1scc(O)n1C` [Thiazolidine-dione, 5]: the IC50 in assay [5] was more than 50 µM; in assay [2], more than 100 µM; in assay [3], more than 100 µM; in assay [4], more than 100 µM.
In the case of `C=C(C)Cn1c(O)c(C)sc1=NN=c1scc(O)n1C` [Thiazolidine-dione, 6], the IC50 in assay [5] was more than 50 µM; in assay [2], more than 100 µM; in assay [3], more than 100 µM; in assay [4] it was more than 100 µM.
For `C=C(C)Cn1c(O)c(O)sc1=NN=c1scc(O)n1C` [Thiazolidine-dione, 7], the half-maximal inhibitory concentration (IC50) in assay [5], in assay [2], in assay [3] and in assay [4] was more than 100 µM throughout.
As for `C=C(C)Cn1c(O)c(CO)sc1=NN=c1scc(O)n1C` [Thiazolidine-dione, 8], the IC50 in assay [5] was more than 50 µM; in assay [2] it was more than 100 µM; in assay [3], more than 100 µM.
`C=CCn1c(O)c(CC(=O)O)sc1=NN=c1scc(O)n1C` [Thiazolidine-dione, 9]: the IC50 in assay [5], in assay [2], in assay [3] and in assay [4] was more than 100 µM throughout.
For `C=C(C)Cn1c(O)c(OS(=O)O)sc1=NN=c1scc(O)n1C` [Thiazolidine-dione, 10], the IC50 in assay [5] was 100 µM; in assay [1] it was more than 100 µM; in assay [2], more than 100 µM; in assay [3], more than 100 µM; in assay [4], more than 100 µM.

The record behind these values is BindingDB's records for PubMed 2176210 (Ciba-Geigy, 1990).
